Experimental data published in patent US8581584B2, “Membrane proteins, mechanisms of action and uses thereof” (priority 2010, dated 2013).

Biological target: M2 conductance domain (residues 22-62) (Influenza A virus, UniProt P0DOF5, C50S)
Type: biochemical, influenza A Udorn/1972 virus

With `NC12CC3CC(CC(C3)C1)C2` [amantadine] the “blockage of proton uptake” value was about 80% and the “proton flux, initial slope of proton uptake per tetramer vs time” value was 30 protons per tetramer per second.
